“And” between values parts separate entries of the source, which are not always exact repeats. Identical values can stand only once.

Assay type in all cases: cell-based
For one series, the system named is CRBPI mRNA. Kind of series: Various anti-aging related mRNA expression experiment (qPCR), CRBPI. The conditions noted are these: HFF-1 cells, 5 μg/mL HPR, 9 μg/mL retinyl propionate, alone or in combination, individual replicates. The protocol:
(§1) RNA extraction: a cell sample was taken, a supernatant was removed, 1 mL of a TRIZON reagent was added into each well of a 6-well plate, the cells were stood, cracked, and transferred to a 1.5-mL EP tube, 0.2 mL of chloroform was added, and the mixture was shaken, uniformly mixed, stood on ice, and centrifuged at 12,000 rpm/min at 4° C. for 15 min; about 400 μL of an obtained supernatant was taken, isopropanol with the same volume was added, the mixture was lightly shaken, stood on ice at 4° C., and centrifuged at 12,000 rpm/min for 10 min; an obtained supernatant was removed, 1 mL of 75% ethanol was added into an obtained precipitate, an EP tube was shaken to float the precipitate to achieve a washing effect, the obtained product was centrifuged at 7,500 rpm/min at 4° C. for 10 min; an obtained supernatant was removed, a part of ethanol was left, the product was centrifuged at 7,500 rpm/min at 4° C. for 5 min, and residual ethanol was removed from the inner wall of the tube; and an obtained supernatant was removed, the liquid was aspirated, and a certain amount of RNA-free water was added for resuspension and dissolution. 2 μL of the product was analyzed on a SpectraMax iD3 multifunctional microplate reader for detecting the RNA concentration and A260/A280 value.
(§2) cDNA synthesis: the mRNA was subjected to reverse transcription into cDNA by using a HiFiScript cDNA synthesis kit.
(§3) Fluorescence quantification: the expression of the Elastin mRNA in the cell sample was detected by mixing an UltraSYBR Mixture premixed solution and the cDNA, and loading the mixture into a machine.
(§4) 3.1 Experimental content: an effect of 5 μg/mL of HPR and 9 μg/mL of retinyl propionate alone or in combination on expressions of collagen-related mRNAs in HFF-1 cells.
(§5) 3.2 Experimental method: the HFF-1 cells were seeded in a 96-well plate (3,000 cells/mL and […]) and administrated in a 5 μg/mL HPR group, a 9 μg/mL retinyl propionate group, and a 5 μg/mL HPR+9 μg/mL retinyl propionate group. A blank control was set at the same time. Total RNA of the cells was extracted at 24 h, 48 h, and 72 h and the expressions of the collagen-related mRNAs were detected by qPCR. (The specific operation steps referred to section 1.2)
(§6) 3.3 Experimental results: data was input by the Excel, subjected to statistical processing by a Prism (Version 7) software package, and expressed as meantstandard error. Each data was subjected to a one-way analysis of variance and p<0.05 was considered to be statistically different.
Background: Real-time PCR tracks product formation cycle by cycle.

For another series, the system named is Col-IV mRNA. Kind of series: Various anti-aging related mRNA expression experiment (qPCR), Col-IV. The note with it: HFF-1 cells, 5 μg/mL HPR, 9 μg/mL retinyl propionate, alone or in combination, individual replicates. The procedure:
as §1, §2, §3, §4, §5, §6

The test system of the next series is RARB mRNA. Kind of series: Various anti-aging related mRNA expression experiment (qPCR), RARB. The note with it: HFF-1 cells, 5 μg/mL HPR, 9 μg/mL retinyl propionate, alone or in combination, individual replicates. The procedure: as §1, §2, §3, §4, §5, §6
The test system of the next series is Elastin mRNA. In words: Various anti-aging related mRNA expression experiment (qPCR), Elastin. The conditions noted are these: HFF-1 cells, 5 μg/mL HPR, 9 μg/mL retinyl propionate, alone or in combination, individual replicates. The procedure: as §1, §2, §3, §4, §5, §6
For another series, the system named is HFF-1 cells. In words: Cytotoxicity experiment (CCK-8 cell viability). The conditions noted are these: 24 h, 5 μg/mL HPR, 9 μg/mL retinyl propionate, alone or in combination, individual replicates. The protocol:
2.1 Experimental content: an effect of 5 μg/mL of HPR and 9 μg/mL of retinyl propionate alone or in combination on the viability of HFF-1 cells.
2.2 Experimental method: the HFF-1 cells were seeded in a 96-well plate (3,000 cells/mL and 100 μL per well) and administrated in a 5 μg/mL HPR group, a 9 μg/mL retinyl propionate group, and a 5 μg/mL HPR+9 μg/mL retinyl propionate group. A blank control was set at the same time. The cell viability after 24 h of the administration treatment was detected using a CCK-8 kit.
2.3 Experimental results: data was input by the Excel, subjected to statistical processing by a Prism (Version 7) software package, and expressed as meantstandard error. Each data was subjected to a one-way analysis of variance and p<0.05 was considered to be statistically different.

For `CC1=C(/C=C/C(C)=C/C=C/C(C)=C/C(=O)OCC(=O)C(C)(C)C)C(C)(C)CCC1` [HPR, hydroxypinacolone retinoate], the “CRBPI mRNA expression (blank control 1)” value with CRBPI mRNA (after 24 h) is 3.223 and 1.094 and 1.597; in the series with CRBPI mRNA (after 48 h), 1.094 and 1.488 and 1.58; in the series with CRBPI mRNA (after 72 h), 4.017 and 1.79 and 3.295. Also, the “Col IV mRNA expression (blank control 1)” value in the series on Col-IV mRNA (after 24 h) was 1.357 and 1.014 and 1.223; with Col-IV mRNA (after 48 h) it was 1.474 and 1.094 and 1.945; in the series with Col-IV mRNA (after 72 h), 1.165 and 1.265 and 0.9395. In addition, the “RARB mRNA expression (blank control 1)” value with RARB mRNA (after 24 h) is 1.079 and 3.732 and 5.063; in the series with RARB mRNA (after 48 h), 1.659 and 1.189 and 3.605; in the series on RARB mRNA (after 72 h), 2.395 and 1.042 and 4.925. For the same compound, the “Elastin mRNA expression (blank control 1)” value in the series on Elastin mRNA (after 24 h) is 1.778 and 14.52 and 1.029; in the series on Elastin mRNA (after 48 h) it was 2.928 and 2.809 and 3.317; in the series on Elastin mRNA (after 72 h), 1.963 and 3.52 and 4.112. Moreover, the “viability of HFF-1 cells (blank control 100)” value with HFF-1 cells is 104.9 and 101.4 and 100.3.

As to `CCC(=O)OC/C=C(C)/C=C/C=C(C)/C=C/C1=C(C)CCCC1(C)C` [retinyl propionate], the “CRBPI mRNA expression (blank control 1)” value was 1.58 and 1.866 and 1.042 in the series with CRBPI mRNA (after 24 h); 1.275 and 1.647 (2×) in the series with CRBPI mRNA (after 48 h); 3.272 and 1.087 and 1.072 in the series on CRBPI mRNA (after 72 h). Moreover, the “Col IV mRNA expression (blank control 1)” value in the series with Col-IV mRNA (after 24 h) is 1 and 1.357 and 1.079; with Col-IV mRNA (after 48 h) it was 1.385 and 1.485 and 1.117; in the series with Col-IV mRNA (after 72 h) it was 1.625 and 1.189 and 0.9794. Moreover, the “RARB mRNA expression (blank control 1)” value in the series on RARB mRNA (after 24 h) was 1.301 and 1.214 and 2.828; with RARB mRNA (after 48 h), 1.301 and 1.602 and 1.079; with RARB mRNA (after 72 h) it was 1.803 and 1.165 and 1.301. Further, the “Elastin mRNA expression (blank control 1)” value is 1.778 and 16.11 and 1.157 in the series with Elastin mRNA (after 24 h); 1.866 and 2.77 and 3.01 in the series on Elastin mRNA (after 48 h); 5.736 and 6.727 and 1.275 in the series with Elastin mRNA (after 72 h). For the same compound, the “viability of HFF-1 cells (blank control 100)” value in the series on HFF-1 cells was 100.2 and 100.8 and 95.66.
